# Measured values reported in patent publication US7402310B2, “Deoxyribonuclease, gene encoding same and use thereof” (priority 2001, dated 2008).
# T1: DLAD (Mus musculus, UniProt Q9QY48)
# T1 construct: These plasmids encode the mature proteins of DLAD and DNase II, respectively, wherein Myc and His-tags are added to their C termini; made in house; host or cells: HeLa S3 cells (human), transient transfection, Ni-NTA purification
# T1 sequence (Q9QY48 23-354): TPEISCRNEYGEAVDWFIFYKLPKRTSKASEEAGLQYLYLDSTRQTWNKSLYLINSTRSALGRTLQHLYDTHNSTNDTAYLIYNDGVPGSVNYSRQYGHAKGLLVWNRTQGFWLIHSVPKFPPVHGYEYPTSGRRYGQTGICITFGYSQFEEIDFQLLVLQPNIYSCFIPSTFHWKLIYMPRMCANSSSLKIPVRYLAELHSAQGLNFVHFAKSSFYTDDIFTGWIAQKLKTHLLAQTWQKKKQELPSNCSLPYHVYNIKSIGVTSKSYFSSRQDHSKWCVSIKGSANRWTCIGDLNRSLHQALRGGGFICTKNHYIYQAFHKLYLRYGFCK
# What was measured:
# DLAD [1] = biological target: T1, DLAD; assay: Sensitivity of DLAD DNase activity against inhibitors; assay type: biochemical; settings: standard conditions: pH 5.2, 45° C., 20 min, plasmid DNA substrate; read-out: IC50, inhibition of DLAD activity
# Experimental: In the same manner as in (2) of Example 3, HeLa S3 cells (5×10^6) were transfected with 25 μg of pcmDLAD-Myc-His or pcmDNaseII-Myc-His, individually. These plasmids encode the mature proteins of DLAD and DNase II, respectively, wherein Myc and His-tags are added to their C termini. After incubation of the cells for 48 hr, recombinant DLAD and recombinant DNase II were purified by IMAC using Ni-NTA spin column, in the same manner as in (2) of Example 3. The purified DLAD (or DNase II), which was eluted in 300 μl of elution buffer [50 mM sodium phosphate (pH 8.0) containing 250 mM imidazole and 300 mM NaCl], was dialyzed against 20 mM Mes-NaOH containing 1 mM 2-mercaptoethanol and used in the following assay for enzyme activities. The Sample obtained by treating HeLa S3 cells transfected with empty vector in the same manner was used as a control.
# In the following experiments, the assay for DNase activity was performed as below, unless otherwise described. 20 μl of reaction mixture [50 mM Mes-NaOH (pH 5.2), 1 mM 2-mercaptoethanol, 1 unit of enzyme, 500 ng supercoiled or EcoR I-digested linear pBLUESCRIPT KS+ phagemid vector] was prepared on ice and incubated at 45° C. for 20 min. The reaction was terminated with phenol/chloroform and 5 μl aliquot of the reaction mixture was subjected to 1% agarose gel electrophoresis. After ethidium bromide staining, the image was scanned with CCD camera (Atto) under UV transillumination and optical density of the band corresponding to the full length substrate DNA was quantified by densitometry (NIH image 1.60). DNase activity was determined using reduction of the band intensity corresponding to the full length substrate DNA as an index. In the present invention, 1 unit of DLAD and DNase II activities are defined as their amounts required to decrease the band intensity corresponding to 200 ng of the full length substrate DNA under the above-mentioned reaction conditions.
# DLAD activities were determined in the presence of various concentrations of DNase inhibitors [MgCl2 (FIG. 2A, ◯), MgSO4 (FIG. 2A, ●), aurintricarboxylic acid (FIG. 2B), G-actin (FIG. 2C), CoCl2 (FIG. 2D, ▪), NiCl2 (FIG. 2D, Δ) and ZnCl2 (FIG. 2D, ●)] under the above-mentioned standard conditions to analyze its sensitivity against the inhibitors. […] In contrast, it is known that there are little differences between these three divalent metal ions in inhibitory effect on DNase II [J. Biochem., 87: 1097-1103 (1980)].
# DLAD [2] = biological target: T1, DLAD; assay: Divalent cation-dependency of DLAD activity (chelators); assay type: biochemical; settings: 1 mM chelator; pH 5.2 and pH 7.2; supercoiled plasmid
# Experimental: (§1) In the same manner as in (2) of Example 3, HeLa S3 cells (5×10^6) were transfected with 25 μg of pcmDLAD-Myc-His or pcmDNaseII-Myc-His, individually. These plasmids encode the mature proteins of DLAD and DNase II, respectively, wherein Myc and His-tags are added to their C termini. After incubation of the cells for 48 hr, recombinant DLAD and recombinant DNase II were purified by IMAC using Ni-NTA spin column, in the same manner as in (2) of Example 3. […]
# (§2) In the following experiments, the assay for DNase activity was performed as below, unless otherwise described. […] After ethidium bromide staining, the image was scanned with CCD camera (Atto) under UV transillumination and optical density of the band corresponding to the full length substrate DNA was quantified by densitometry (NIH image 1.60). DNase activity was determined using reduction of the band intensity corresponding to the full length substrate DNA as an index. […]
# Using a supercoiled plasmid as a substrate, DLAD activities in the presence and absence of a divalent cation chelator were determined under acidic (50 mM Mes-NaOH, pH 5.2) and neutral (50 mM Mops-NaOH, pH 7.2) conditions, respectively. […]
# [3] = Stability in the medium for HeLa S3 cells
# [4] = system: supercoiled p[…]+ phagemid vector; assay: Mode of DNA hydrolysis (end labeling of degraded plasmid); assay type: biochemical; settings: standard conditions
# Experimental: Using a supercoiled pBLUESCRIPT KS+ phagemid vector as a substrate, enzyme reaction of DLAD or DNase II was performed under the above-mentioned standard conditions. After terminating the reaction, contaminants were removed by phenol/chloroform treatment to isolate degraded plasmid DNA. The 3′ ends were labeled in 50 μl of a reaction solution consisting of 20 units of terminal deoxynucleotidyl transferase (Toyobo), 0.83 mCi/ml […], 100 mM sodium cacodylate (pH 7.2), 0.2 mM DTT and 1 mM CoCl2. The 5′ ends were labeled in 50 μl of a reaction solution consisting of 20 units of polynucleotide kinase (Toyobo), 0.83 mCi/ml [γ-^32P]ATP, 50 mM Tris-HCl (pH 8.0), 10 mM MgCl2 and 10 mM 2-mercaptoethanol. The end-labeling treatments were performed as to both DNAs with and without pretreatment with 20 units of calf intestinal alkaline phosphatase (Takara) in the presence of 50 mM Tris-HCl (pH 8.0) and 1 mM MgCl2 to remove the phosphoryl groups in the ends of DNAs, respectively. Unincorporated nucleotides were removed by ethanol precipitation. The labeled DNA was subjected to 1% agarose gel electrophoresis, transferred onto nylon membrane and analyzed with BAS 1500 image analyzer (Fuji Film). […]
# supercoiled plasmid = assay: Active pH range and optimal pH of DNase activity; assay type: biochemical; settings: Mes-NaOH; pH 4.0 to 7.6 examined
# Experimental: as §1, §2
# Using a supercoiled plasmid as a substrate, DLAD and DNase II activities were determined under the above-mentioned standard conditions except varying kinds of buffers and pH [i.e., acetate-NaOH (pH 4.0 and 4.4), Mes-NaOH (pH 4.8, 5.2, 5.6, 6.0 and 6.4) and Mops-NaOH (pH 6.4, 6.8, 7.2 and 7.6)]. […]
# [5] = Characterization of recombinant rat and human DLAD; assay type: biochemical; settings: recombinant protein from HeLa S3 cells
# Source text: Using the same strategy as in Example 1, a rat EST clone (GenBank AF178974) encoding the amino acid sequence with homology to the deduced amino acid sequence of human DNase II was identified. Oligonucleotide primers were synthesized based on the nucleotide sequence of this clone, followed by the RACE with liver poly A(+) RNA derived from Wister rat, which is connately pigment-deficient (albino), as a template to clone the full length rat DLAD cDNA. From the sequence analysis by a conventional method, it was deduced that this cDNA contains an ORF encoding 356 amino acids with a signal peptide consisting of 22 amino acids at the N terminus. […] An expression vector encoding rat DLAD with Myc and His-tags at the C terminus (prDLAD-Myc-His) was constructed by the same strategy as in (1) of Example 3. HeLa S3 cells were transfected with this vector to generate a recombinant rat DLAD.
# (sequence complementary to the nucleotide sequence of the nucleotide Nos. 973 to 999 of the nucleotide sequence shown in Sequence Listing, SEQ ID NO: 4) were synthesized and, further using the above-mentioned linker primer AP1 together with these primers, RACE was performed with human liver-derived poly A(+) RNA as a template to clone the full length human DLAD cDNA. […]
molecule,measurement,setting,value
O=C(O)C1=CC(=C(c2ccc(O)c(C(=O)O)c2)c2ccc(O)c(C(=O)O)c2)C=CC1=O [Aurintricarboxylic acid],IC50,DLAD [1],0.006 mM
O=C(O)CN(CCN(CC(=O)O)CC(=O)O)CC(=O)O [EDTA],Effect of divalent cation chelator on DLAD activity,DLAD [2],no effect
O=C(O)CN(CCOCCOCCN(CC(=O)O)CC(=O)O)CC(=O)O [EGTA],Effect of divalent cation chelator on DLAD activity,DLAD [2],no effect
[Cl-].[Cl-].[Mg+2] [MgCl2],IC50,DLAD [1],13 mM
O=S(=O)([O-])[O-].[Mg+2] [MgSO4],IC50,DLAD [1],7 mM
"[Cl-].[Cl-].[Zn+2] [Zn^2+, ZnCl2]",IC50,DLAD [1],0.2 mM
"DLAD: novel acid DNase cleaving DNA independently from divalent cations; mouse, amino acid Nos. 1 to 332 of SEQ ID NO: 1 (protein, listed as Mus musculus) MTAKPLRTVLSLLFFALSGVLGTPEISCRNEYGEAVDWFIFYKLPKRTSKASEEAGLQYLYLDSTRQTWNKSLYLINSTRSALGRTLQHLYDTHNSTNDTAYLIYNDGVPGSVNYSRQYGHAKGLLVWNRTQGFWLIHSVPKFPPVHGYEYPTSGRRYGQTGICITFGYSQFEEIDFQLLVLQPNIYSCFIPSTFHWKLIYMPRMCANSSSLKIPVRYLAELHSAQGLNFVHFAKSSFYTDDIFTGWIAQKLKTHLLAQTWQKKKQELPSNCSLPYHVYNIKSIGVTSKSYFSSRQDHSKWCVSIKGSANRWTCIGDLNRSLHQALRGGGFI",Stability in the medium,[3],as stable as DNase II
same,DNA cleavage mode (ends generated),[4],3′-P/5′-OH ends
same,Optimal pH of DNase activity,supercoiled plasmid,5.2
"rat DLAD: recombinant rat DLAD, ORF encoding 356 amino acids, Myc and His-tags at the C terminus (protein, UniProt Q9QZK9 23-356, looked up, C-terminal Myc and His tags, recombinant rat DLAD, ORF encoding 356 amino acids, Myc and His-tags at the C terminus) Deoxyribonuclease-2-beta: TPVISCINEDGKAVDWFAFYKLPRRTSRGGTGMGLDYLYLDSTMRTWSKSHHLINSSRSSLGRTLEQLYEAHNAKNDTAYLIYNDAVPASVNYSGNYGHAKGLLVWNRVQGFWLIHSIPKFPPVPEKGYEYPSSGRQYAQSGLCITLKYSQYETIDSQLLVFQPNIYSCFIPNIFRWELIHMPQMCAKSSASKIPSRRLTVLQSAQGLNFLHFAKSTFYTDDIFAAWIAQKLKVHLLVESWQRKNHELPSNCSLPYHVYNIKAIRGPLQSDFPSHHDHSKWCVSTKDSQARWTCIGDLNRSPHQALRSGGFICSKNRYIYQSFDRLVSHYASCN","Properties: active pH range, divalent cation-dependency, mode of DNA cleavage, sensitivity to inhibitors",[5],properties similar to mouse DLAD
"human DLAD: recombinant human DLAD, SEQ ID NO: 3, Myc and His-tags at the C terminus (protein, listed as Homo sapiens, C-terminal Myc and His tags) MKQKMMARLLRTSFALLFLGLFGVLGAATISCRNEEGKAVDWFTFYKLPKRQNKESGETGLEYLYLDSTTRSWRKSEQLMNDTKSVLGRTLQQLYEAYASKSNNTAYLIYNDGVPKPVNYSRKYGHTKGLLLWNRVQGFWLIHSIPQFPPIPEEGYDYPPTGRRNGQSGICITFKYNQYEAIDSQLLVCNPNVYSCSIPATFHQELIHMPQLCTRASSSEIPGRLLTTLQSAQGQKFLHFAKSDSFLDGIFAAWMAQRLKTHLLTETWQRKRQELPSNCSLPYHVYNIKAIKLSRHSYFSSYQDHAKWCISQKGTKNRWTCIGDLNRSPHQAFRSGGFICTQNWQIYQAFQGLVLYYESCK","Properties: active pH range, divalent cation-dependency, mode of DNA cleavage, sensitivity to inhibitors",[5],properties similar to mouse DLAD
